Active and inactive are the calls of the source. No cut-off for these calls is given here.
Columns and labels:
[1] = target: Proprotein convertase subtilisin/kexin type 9 (Homo sapiens) (UniProt Q8NBP7); assay: Inhibition of PCSK9 transcriptional activity in human HepG2 cells stably expressing luciferase reporter plasmid containing PCSK9 promoter assessed as decrease in luciferase activity at 10 ug/ml incubated for 24 hrs by Luciferase assay relative to control; format: cell-based; conditions: dose 10.0 µg/ml
[2] = Cytotoxicity against human HepG2 cells assessed as reduction in cell viability by measuring toxic concentration incubated for 24 hrs by MTT assay; format: toxicity, cell-based; conditions: read-out: TC50
[3] = system: PCSK9 transcriptional activity; assay: Therapeutic index, ratio of TC50 for cytotoxicity against human HepG2 cells to IC50 for inhibition of PCSK9 transcriptional activity in human HepG2 cells stably expressing luciferase reporter plasmid containing PCSK9 promoter; format: toxicity, cell-based
[4] = Acute toxicity in C57BL/6 mouse assessed as body weight change upto 1000 mg/kg, IG and measured every day for 1 week; format: organism-based; conditions: in vivo, po, 168 h, time 1 weeks
[5] = Acute toxicity in C57BL/6 mouse assessed as behavioral change upto 1000 mg/kg, IG and measured every day for 1 week; format: organism-based; conditions: in vivo, po, 168 h, time 1 weeks
[6] = Acute toxicity in C57BL/6 mouse assessed as survival upto 1000 mg/kg, IG and measured every day for 1 week; format: organism-based; conditions: in vivo, po, 168 h, time 1 weeks
[7] = Acute toxicity in C57BL/6 mouse assessed as lethality upto 1000 mg/kg, IG and measured every day for 1 week; format: organism-based; conditions: in vivo, po, time 1 weeks
[8] = system: Mus musculus; assay: In vivo inhibition of PCSK9 in high-fat diet fed ApoE knockout C57BL/6 mouse assessed as decrease in PCSK9 expression in serum at 30 mg/kg, IG for 8 weeks by ELISA; format: functional, organism-based
[9] = system: Mus musculus; assay: In vivo inhibition of PCSK9 in high-fat diet fed ApoE knockout C57BL/6 mouse assessed as decrease in PCSK9 expression in liver at 30 mg/kg, IG for 8 weeks by Western blot analysis; format: functional, organism-based
[10] = target: Proprotein convertase subtilisin/kexin type 9 (Homo sapiens) (UniProt Q8NBP7); assay: Inhibition of PCSK9 in human HepG2 cells assessed as decrease in PCSK9 protein expression level at 2.5 to 25 uM incubated for 24 hrs by Western blot analysis; format: cell-based; conditions: dose 2.5-25 µM
[11] = target: Proprotein convertase subtilisin/kexin type 9 (Homo sapiens) (UniProt Q8NBP7); assay: Inhibition of PCSK9 in human HepG2 cells assessed as increase in LDLR protein expression level at 2.5 to 25 uM incubated for 24 hrs by Western blot analysis; format: cell-based; conditions: dose 2.5-25 µM
[12] = target: Proprotein convertase subtilisin/kexin type 9 (Homo sapiens) (UniProt Q8NBP7); assay: Inhibition of PCSK9 in human HepG2 cells assessed as increase in LDL-cholesterol cellular uptake by measuring DiI fluorescence at 2.5 to 25 uM incubated for 24 hrs by Dil-LDL staining based flow cytometry analysis; format: cell-based; conditions: dose 2.5-25 µM
[13] = target: Proprotein convertase subtilisin/kexin type 9 (Homo sapiens) (UniProt Q8NBP7); assay: Inhibition of PCSK9 in human HepG2 cells assessed as fold increase in LDL-cholesterol cellular uptake by measuring DiI fluorescence at 25 uM incubated for 24 hrs by Dil-LDL staining based flow cytometry analysis relative to control; format: cell-based
[14] = system: Mus musculus; assay: Antiatherosclerotic activity in high-fat diet fed ApoE knockout C57BL/6 mouse assessed as decrease in high-fat diet induced increase in body weight at 30 mg/kg, IG for 8 weeks; format: functional, organism-based
[15] = system: Mus musculus; assay: Antiatherosclerotic activity in high-fat diet fed ApoE knockout C57BL/6 mouse assessed as decrease in serum total cholesterol level at 30 mg/kg, IG for 8 weeks by lipid profiling assay; format: functional, organism-based
[16] = system: Mus musculus; assay: Antiatherosclerotic activity in high-fat diet fed ApoE knockout C57BL/6 mouse assessed as decrease in serum triglyceride level at 30 mg/kg, IG for 8 weeks by lipid profiling assay; format: functional, organism-based
[17] = system: Mus musculus; assay: Antiatherosclerotic activity in high-fat diet fed ApoE knockout C57BL/6 mouse assessed as decrease in LDL cholesterol level at 30 mg/kg, IG for 8 weeks by FPLC analysis; format: functional, organism-based
[18] = system: Mus musculus; assay: Antiatherosclerotic activity in high-fat diet fed ApoE knockout C57BL/6 mouse assessed as decrease in VLDL fraction cholesterol level at 30 mg/kg, IG for 8 weeks by FPLC analysis; format: functional, organism-based
[19] = system: Mus musculus; assay: Antiatherosclerotic activity in high-fat diet fed ApoE knockout C57BL/6 mouse assessed as reduction in atherosclerotic plaque size in aortic root at 30 mg/kg, IG for 8 weeks by Oil Red O staining based imaging analysis; format: functional, organism-based
[20] = system: Mus musculus; assay: Antiatherosclerotic activity in high-fat diet fed ApoE knockout C57BL/6 mouse assessed as reduction in atherosclerotic plaque size in aortae en face root at 30 mg/kg, IG for 8 weeks by Oil Red O staining based imaging analysis; format: functional, organism-based
[21] = target: Proprotein convertase subtilisin/kexin type 9 (Homo sapiens) (UniProt Q8NBP7); assay: Inhibition of PCSK9 transcriptional activity in human HepG2 cells transfected with luciferase reporter plasmid containing truncated D1 (-1711 to -1 base pairs) human PCSK9 promoter region assessed as decrease in luciferase activity incubated for 24 hrs by Luciferase assay; format: cell-based
[22] = target: Proprotein convertase subtilisin/kexin type 9 (Homo sapiens) (UniProt Q8NBP7); assay: Inhibition of PCSK9 transcriptional activity in human HepG2 cells transfected with luciferase reporter plasmid containing truncated D2 (-1214 to -1 base pairs) human PCSK9 promoter region assessed as decrease in luciferase activity incubated for 24 hrs by Luciferase assay; format: cell-based
[23] = target: Proprotein convertase subtilisin/kexin type 9 (Homo sapiens) (UniProt Q8NBP7); assay: Inhibition of PCSK9 transcriptional activity in human HepG2 cells transfected with luciferase reporter plasmid containing truncated D3 (-709 to -1 base pairs) human PCSK9 promoter region assessed as decrease in luciferase activity incubated for 24 hrs by Luciferase assay; format: cell-based
[24] = target: Proprotein convertase subtilisin/kexin type 9 (Homo sapiens) (UniProt Q8NBP7); assay: Inhibition of PCSK9 transcriptional activity in human HepG2 cells transfected with luciferase reporter plasmid containing truncated D4 (-440 to -1 base pairs) human PCSK9 promoter region assessed as decrease in luciferase activity incubated for 24 hrs by Luciferase assay; format: cell-based
[25] = target: Proprotein convertase subtilisin/kexin type 9 (Homo sapiens) (UniProt Q8NBP7); assay: Inhibition of PCSK9 transcriptional activity in human HepG2 cells transfected with luciferase reporter plasmid containing truncated D5 (-392 to -1 base pairs) human PCSK9 promoter region assessed as decrease in luciferase activity incubated for 24 hrs by Luciferase assay; format: cell-based
[26] = target: Proprotein convertase subtilisin/kexin type 9 (Homo sapiens) (UniProt Q8NBP7); assay: Inhibition of PCSK9 transcriptional activity in human HepG2 cells transfected with luciferase reporter plasmid containing truncated D6 (-351 to -1 base pairs) human PCSK9 promoter region assessed as decrease in luciferase activity incubated for 24 hrs by Luciferase assay; format: cell-based
[27] = target: Proprotein convertase subtilisin/kexin type 9 (Homo sapiens) (UniProt Q8NBP7); assay: Inhibition of PCSK9 transcriptional activity in human HepG2 cells transfected with luciferase reporter plasmid containing truncated D7 (-335 to -1 base pairs) human PCSK9 promoter region assessed as decrease in luciferase activity incubated for 24 hrs by Luciferase assay; format: cell-based

Proprotein convertase subtilisin/kexin type 9 (Homo sapiens), sequence (Q8NBP7 31-152 limits assumed): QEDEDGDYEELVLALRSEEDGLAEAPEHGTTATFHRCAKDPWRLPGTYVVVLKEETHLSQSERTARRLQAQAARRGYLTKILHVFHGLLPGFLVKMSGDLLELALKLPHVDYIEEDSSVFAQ
Proprotein convertase subtilisin/kexin type 9 (Homo sapiens), sequence (Q8NBP7 153-692 limits assumed): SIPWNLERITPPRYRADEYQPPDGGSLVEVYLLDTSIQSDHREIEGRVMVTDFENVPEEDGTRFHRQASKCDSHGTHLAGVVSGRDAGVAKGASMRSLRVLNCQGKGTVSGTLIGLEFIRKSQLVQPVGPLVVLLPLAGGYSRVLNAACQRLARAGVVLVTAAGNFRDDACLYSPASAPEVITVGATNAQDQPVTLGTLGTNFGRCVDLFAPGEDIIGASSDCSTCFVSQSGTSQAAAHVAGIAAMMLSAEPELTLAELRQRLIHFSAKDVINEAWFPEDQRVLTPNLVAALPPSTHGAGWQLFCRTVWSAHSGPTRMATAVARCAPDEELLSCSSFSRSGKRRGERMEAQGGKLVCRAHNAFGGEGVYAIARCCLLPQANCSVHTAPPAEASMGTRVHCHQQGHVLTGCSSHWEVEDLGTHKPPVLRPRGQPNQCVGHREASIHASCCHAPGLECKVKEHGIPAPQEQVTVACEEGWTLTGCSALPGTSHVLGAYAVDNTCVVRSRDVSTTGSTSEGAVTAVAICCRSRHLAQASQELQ

For `Cn1c(=O)c2c(nc(NCCO)n2Cc2cccc(F)c2)n(C)c1=O`, the inhibition [1] was 92.6%.

Work on `COc1cccc(Cn2c(NCCC3CCN(C)C3)nc3c2c(=O)n(C)c(=O)n3C)c1` (configuration not stated) yielded an inhibition [1] of 16.7%.

Work on `COc1ccc(Cn2c(NCCO)nc3c2c(=O)n(C)c(=O)n3C)cc1OC` yielded an inhibition [1] of 16.2%.

Molecule `COc1cccc(Cn2c(Nc3cccc(O)c3)nc3c2c(=O)n(C)c(=O)n3C)c1` has an inhibition [1] of -9.3%.

`COc1cccc(Cn2c(NCCCN(C)C)nc3c2c(=O)n(C)c(=O)n3C)c1` showed an inhibition [1] of 2.3%.

With `Cn1c(=O)c2c(nc(NCCO)n2Cc2ccccc2)n(C)c1=O` the inhibition [1] was 80.4%, the CC50 at 24 h [2] was 85.5 µM and the selectivity ratio [3] was 23.1.

Molecule `COc1cccc(Cn2c(N3CCC(CCN(C)C)CC3)nc3c2c(=O)n(C)c(=O)n3C)c1` has an inhibition [1] of 17.4%.

`Cn1c(=O)c2c(nc(NCCO)n2Cc2cccc(Cl)c2F)n(C)c1=O` gave an inhibition [1] of 95.8%, a CC50 at 24 h [2] greater than 200 µM and a selectivity ratio [3] greater than 35.1. The Activity [4] was “Non-Toxic”, the Activity [5] was “Non-Toxic” and the Activity [6] was “Non-Toxic”. For the same molecule, the LD50 at 168 h [7] was greater than 1000 mg/kg, the inhibition [8] was “inactive” and the inhibition [9] was “Active”. The inhibition [10] was “Dose-Dependent Effect”, the inhibition [11] was “Dose-Dependent Effect” and the inhibition [12] was “Dose-Dependent Effect”. For the same molecule, the fold change (FC) [13] was 1.7, the Activity [14] was “Active” and the Activity [15] was “inactive”. The Activity [16] was “inactive”.

In the case of `CCCn1c(NCCO)nc2c1c(=O)n(C)c(=O)n2C`, the inhibition [1] was 12.1%.

`Cn1c(=O)c2c(nc(NCCO)n2Cc2ccc(F)cc2)n(C)c1=O` showed an inhibition [1] of 93.1%.

`COc1cccc(Cn2c(NCCCCO)nc3c2c(=O)n(C)c(=O)n3C)c1` showed an inhibition [1] of 41.4%.

In the case of `COc1cccc(Cn2c(NCCO)nc3c2c(=O)n(C)c(=O)n3C)c1`, the inhibition [1] was 89.8%, the CC50 at 24 h [2] was 45.5 µM and the selectivity ratio [3] was 16.8. For the same molecule, the LD50 at 168 h [7] was 300 mg/kg, the Activity [14] was “Active” and the Activity [15] was “inactive”. The Activity [16] was “inactive”.

Work on `Cn1c(=O)c2c(nc(NCCO)n2Cc2ccc(F)cc2F)n(C)c1=O` yielded an inhibition [1] of 76.1%.

Work on `COc1ccc(Cn2c(NCCO)nc3c2c(=O)n(C)c(=O)n3C)cc1` yielded an inhibition [1] of 76.5%.

Molecule `COc1cccc(Cn2c(NCC(O)CO)nc3c2c(=O)n(C)c(=O)n3C)c1` (configuration not stated) has an inhibition [1] of 11.6%.

Molecule `Cn1c(=O)c2c(nc(NCCO)n2Cc2cccc(OC(F)(F)F)c2)n(C)c1=O` has an inhibition [1] of 84.7%.

`Cn1c(=O)c2c(nc(NCCO)n2Cc2cc(F)cc(F)c2)n(C)c1=O` gave an inhibition [1] of 43.3%.

In the case of `COC(=O)CCNc1nc2c(c(=O)n(C)c(=O)n2C)n1Cc1cccc(OC)c1`, the inhibition [1] was 41.4%.

Molecule `COc1cccc(Cn2c(N3CCC(N4CCCC4)CC3)nc3c2c(=O)n(C)c(=O)n3C)c1` has an inhibition [1] of 8.3%.

`Cn1c(=O)c2c(nc(NCCO)n2CC2CCOCC2)n(C)c1=O` gave an inhibition [1] of 13.6%.

`COCCNc1nc2c(c(=O)n(C)c(=O)n2C)n1Cc1cccc(OC)c1` gave an inhibition [1] of 85.7%, a CC50 at 24 h [2] greater than 200 µM and a selectivity ratio [3] greater than 31.3. For the same molecule, the Activity [4] was “Non-Toxic”, the Activity [5] was “Non-Toxic” and the Activity [6] was “Non-Toxic”. The LD50 at 168 h [7] was greater than 1000 mg/kg, the inhibition [8] was “Active” and the inhibition [9] was “Active”. For the same molecule, the inhibition [10] was “Dose-Dependent Effect”, the inhibition [11] was “Dose-Dependent Effect” and the inhibition [12] was “Dose-Dependent Effect”. For the same molecule, the fold change (FC) [13] was 1.7, the Activity [14] was “Active” and the Activity [15] was “Active”. For the same molecule, the Activity [16] was “Active”, the Activity [17] was “Active” and the Activity [18] was “Active”. The Activity [19] was “Active”, the Activity [20] was “Active” and the inhibition [21] was “Active”. For the same molecule, the inhibition [22] was “Active”, the inhibition [23] was “Active” and the inhibition [24] was “Active”. For the same molecule, the inhibition [25] was “Active”, the inhibition [26] was “inactive” and the inhibition [27] was “inactive”.

Work on `COc1cccc(Cn2c(NCC(N)=O)nc3c2c(=O)n(C)c(=O)n3C)c1` yielded an inhibition [1] of 59.2%.

For `COc1cccc(Cn2c(NCCCCCCO)nc3c2c(=O)n(C)c(=O)n3C)c1`, the inhibition [1] was 9%.

— ChEMBL document CHEMBL5331095, “Structure-activity relationship and biological evaluation of xanthine derivatives as PCSK9 inhibitors for the treatment of atherosclerosis” (Eur J Med Chem, 2023)
